The source of these data is patent US10160705B2, “Class of HDAC inhibitors expands the renal progenitor cells population and improves the rate of recovery from acute kidney injury” (University of Pittsburgh—Of the Commonwealth System of …, priority 2011, dated 2018).

By EC50 is commonly meant the concentration giving half of the maximal effect. High values mean weaker potency, low ones greater potency.

Read-outs that look alike come from different tables or passages of the source.

One series has as its system histone H4. Put plainly: Histone H4 hyperacetylation Western blot in treated embryos. In kind it is in vivo, zebrafish. The settings on record: 24 hpf embryos, 6 hours; 3 μM PTBA, 25 μM PBA, 200 nM TSA. The method, then: It was next determined whether the HDACi function of PTBA was quantifiable in vivo. 24 hpf embryos were treated with 3 μM PTBA, 25 μM PBA, or 200 nM TSA for 6 hours. Protein extracts were prepared and immunoblotted with an anti-hyperacetylated histone H4 antibody. […] Furthermore, increasing the compound concentration caused a corresponding increase in hyperacetylation (FIG. 21).
SDS-PAGE and Western blotting were performed as described previously with some modifications (Noel, E. S. et al. Organ-specific requirements for Hdac1 in liver and pancreas formation. Dev Biol 322, 237-250, (2008)). Proteins were separated on 18% SDS-PAGE gels. Membranes were incubated at 4° C. overnight with 1:1000 anti-hyperacetylated histone H4 antibody (06-946, Millipore) or 1:1000 anti-α-tubulin antibody (Sigma-Aldrich) in PBT containing 5% nonfat milk.
For orientation: A western blot detects proteins with antibodies after separation by electrophoresis.

In the next series the test system is zebrafish embryos. Put plainly: Phenotypic screen for edema and survival in zebrafish larvae at 72 hpf. Summed up:
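Embryos (5/well in primary screen; 12–30 per group otherwise) exposed from 2 hpf in E3 medium with 0.5% DMSO, 10 μM in screen or stated concentrations, 28.5 °C for 70 h. At 72 hpf, edema scored by phenotype classification (dominant phenotype in ≥4/5 embryos in screen); survival vs 0 μM by two-tailed Fisher's exact test (p<0.05).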

The test system of the next series is renal progenitor cells. Put plainly: In situ hybridization for lhx1a expression in 10-somite embryos (renal progenitor cell expansion). For Lhx1a expansion caused by analog treatment, 3 μM: key: effective (+); partially effective (+/−); ineffective (−); Analogs that killed all embryos at a given concentration before reaching 10 somites are listed as XX. For Lhx1a expansion caused by analog treatment, 800 nM: key: effective (+); partially effective (+/−); ineffective (−); Analogs that killed all embryos at a given concentration before reaching 10 somites are listed as XX. In kind it is in vivo. Summed up: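 Zebrafish embryos treated with compound, then colorimetric whole-mount in situ hybridization (65° C) for lhx1a mRNA at 10 somites. Embryos with expanded kidney field counted manually as percent of total. EC50 taken as 50% point of percent-expansion trendline; compounds also classed effective, partial or ineffective versus PTBA at matched concentration.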

[1] abbreviates: number of larvae (of 36), 3 μM from 2 hpf, scored at 72 hpf.

With `O=C(O)CCCSc1ccccc1` [UPHD-00020, 4-(phenylthio)butanoic acid (PTBA)], in the series with histone H4, the “histone H4 hyperacetylation” value is given as “Histone H4 hyperacetylation was observed”. Also, the “larvae with edemic phenotype / pericardial edema by 72 hpf” value in the series with zebrafish embryos (3 μM PTBA, 25 μM PBA, 200 nM TSA) is on record as 92%. Moreover, in the series with zebrafish embryos (10 μM, larvae at 72 hpf), the “phenotype in initial chemical screen” value is listed as “pericardial edema”. Further, the “survival to 72 hpf” value in the series on zebrafish embryos (10 μM, n=90) is “died before 72 hpf”. Besides, the Dead with zebrafish embryos (setting [1]) came out at 1. Besides, in the series with zebrafish embryos (setting [1]), the “Edemic 1 (E1)” value is recorded as 13. For the same compound, the “Edemic 2 (E2)” value in the series with zebrafish embryos (setting [1]) is recorded as 17. Also, in the series on zebrafish embryos (setting [1]), the “Edemic 3 (E3)” value was found to be 5. For the same compound, in the series with zebrafish embryos (setting [1]), the “Wild-type (WT)” value turned out to be 0. Also, the “Lhx1a expansion caused by analog treatment, 800 nM” value in the series on renal progenitor cells (800 nM from 2 hpf, 10-somite embryos) is recorded as “+/−”. Besides, the “Lhx1a expansion caused by analog treatment, 1.5 μM” value in the series with renal progenitor cells (1.5 μM from 2 hpf, 10-somite embryos) is “+”. Moreover, in the series with renal progenitor cells (3 μM from 2 hpf, 10-somite embryos), the “Lhx1a expansion caused by analog treatment, 3 μM” value is recorded as “+”. In addition, the responders at 1.5 µM with renal progenitor cells (Danio rerio, 1.5 μM from 2 hpf, 10-somite embryos, read-out: lhx1a expansion, percent of treated embryos) was determined as 83%. The responders at 3 µM was 97% in the series on renal progenitor cells (Danio rerio, 3 μM PTBA added at 8 hpf after 0.5% DMSO at 5 hpf (HUA study), read-out: lhx1a expansion, percent of treated embryos); 13% in the series with renal progenitor cells (Danio rerio, 3 μM PTBA together with HUA (hydroxyurea and aphidicolin), read-out: lhx1a expansion, percent of treated embryos); 95% in the series on renal progenitor cells (Danio rerio, 3 μM from 2 hpf, 10-somite embryos, read-out: lhx1a expansion, percent of treated embryos); 19% with renal progenitor cells (Danio rerio, embryos injected with 200 pg DN-RARα mRNA, 3 μM PTBA from 5 hpf, read-out: lhx1a expansion, percent of treated embryos); 90% with renal progenitor cells (Danio rerio, mock-injected embryos, 3 μM PTBA from 5 hpf, read-out: lhx1a expansion, percent of treated embryos); 100% in the series with renal progenitor cells (Danio rerio, percent of embryos with expanded kidney field, 3 μM, read-out: Expansion of Cells (including repeats* and recounts**) 3 μM). Moreover, in the series with renal progenitor cells (Danio rerio, percent of embryos with expanded kidney field, 200 nM, read-out: Expansion of Cells (including repeats* and recounts**) 200 nM), the responders at 0.2 µM was 10%. Further, in the series with renal progenitor cells (Danio rerio, percent of embryos with expanded kidney field, 400 nM, read-out: Expansion of Cells (including repeats* and recounts**) 400 nM), the responders at 0.4 µM is 10%. The compound also displayed an EC50 with renal progenitor cells (Danio rerio, first pass EC50 from percent expansion (Excel trendline), average where several experiments) of 1400 nM.
